The structures appear in SMILES notation. Converted amounts (≈) assume the structure as drawn. “Also recorded” adds a separate entry of the source. A value given as a limit tells only on which side of the number the result lay.

The results in this text go back to patent US8247615B2, “Process of converting esterified xanthophylls from Capsicum to non-esterified xanthophylls in high yields and purities” (Kalamazoo Holdings, Inc., priority 2010, dated 2012).

Type in all cases: physicochemical
Data set [1] can be described thus: Solubility of zeaxanthin in solvents (saturated solution, residue weighed). The settings on record: organic solvent or mixture, thermodynamic from solid. An excerpt:
In a procedure identical to that described in Example 6 up until almost the final methanol desolventization step, rather than desolventizing the zeaxanthin methanol slurry, it was transferred along with 1.5 parts water (by volume) to a continuous extractor containing 1 part dichloromethane. The slurry was extracted with dichloromethane for four hours at which time the dichloromethane solution in the receiver was decanted away from the crystalline zeaxanthin that had formed. The crystals thereby obtained were 95.1% pure all-trans-zeaxanthin. The yield obtained was only 12.6%, but this experiment was only intended to produce purified zeaxanthin crystals. […] These crystals were homogenized in a mortar and pestle and added to separate vials containing various solvents until a saturated solution was obtained. In order to measure the solubility of zeaxanthin in different solvents (shown in Table 7 below), a 5.0 ml portion of the saturated supernatant was filtered, desolventized, and the residues weighed.

A short description of data set [2]: Stability of zeaxanthin in strongly basic (pH~14) aqueous methanolic potassium hydroxide at room temperature for 15 days. On the procedure:
A reaction was carried out using the same reactants at the same proportions under the same conditions as reaction 19 in the table in Example 1. The procedure was identical for the first 24 hrs as described for reaction 19, but after refluxing for 24 hours, the mixture was allowed to settle for 1 hour at which time the upper hexane layer was decanted away. The remaining lower phase was washed twice by partitioning with water (30 mL for each wash). In each case the lower aqueous phase was discarded and after the second water wash, methanol (75 mL) was added to the remaining upper phase. The mixture was then distilled to remove the remaining hexanes and then refluxed for five hours. The mixture was then allowed to cool and was centrifuged and decanted to afford a supernatant and a crude precipitate. […] The purity was 17.4%. In a separate experiment, the mixture was allowed to cool after distilling away hexane (i.e. the five hour reflux described above was not carried out) and placed in a separating funnel for 15 days at which time the supernatant was removed by decanting to afford a crude precipitate. […] The supernatant and both wash solutions were analyzed for zeaxanthin content and >99% of the input zeaxanthin was accounted for, even after sitting in caustic solution for two weeks!

Data set [3] in a line: Stability of zeaxanthin on spray drying of the methanol slurry. The settings on record: spray dryer, inlet 120-160° C., outlet 60.5-87.2° C., nitrogen drying gas. As to the method:
In an experiment identical to the procedure described in Example 6, the zeaxanthin/methanol slurry was desolventized using a spray dryer. […] Inlet temperatures ranged from 120° C. to 160° C., outlet temp was 60.5° C. to 87.2° C., and rotary atomizer was set at 5.5 bar. Nitrogen was used as the drying gas.

Data set [4] in a line: Stability of zeaxanthin to saponification / reflux in caustic aqueous methanolic potassium hydroxide. As to the method:
In a procedure similar to that described in Example 2 after distilling away the hexane, the mixture was refluxed for a total of 40 hours and the content of zeaxanthin isomers was monitored by HPLC as a function of time. After refluxing for 40 hours the mixture was allowed to cool, then centrifuged to afford a supernatant and a crude precipitate. The crude precipitate was washed with methanol (4× by weight of crude precipitate) centrifuged and decanted to afford a wash solution and a refined precipitate. After desolventization, the powder was 59.0% pure zeaxanthin corresponding to a yield of 71%. The supernatant and the wash solution were both analyzed for zeaxanthin content and >99% of input zeaxanthin was accounted for, even after refluxing in caustic solution for 40 hours!

Data set [5] in a line: Stability of cis and trans isomers of zeaxanthin to the analytical sample preparation conditions. Conditions: analytical saponification in refrigerator, between 2 and 119 hours. As to the method:
[…]
Using the sample preparation conditions above, duplicate samples were prepared from the same oleoresin and each were split into seven separate vials and then stored in the refrigerator. A vial from each of the duplicate samples was removed at various times and analyzed by HPLC. […] We therefore conclude that our sample preparation and analysis conditions are not changing the amounts of the two isomers and that the amounts measured are the amounts in the samples prior to sample preparation and analysis.

Regarding `CC1=C(/C=C/C(C)=C/C=C/C(C)=C/C=C/C=C(C)/C=C/C=C(C)/C=C/C2=C(C)CC(O)CC2(C)C)C(C)(C)CC(O)C1` (stereo not shown) [Zeaxanthin, zeaxanthin], the solubility came to 1.63 mg/mL (≈ 2870 µM) in data set [1] (solvent Acetone); 2.96 mg/mL (≈ 5200 µM) in data set [1] (solvent DCM (dichloromethane)); 1.07 mg/mL (≈ 1880 µM) in data set [1] (solvent EtOAc (ethyl acetate)); 0.04 mg/mL (≈ 70.3 µM) in data set [1] (solvent EtOH (ethanol)); 0.068 mg/mL (≈ 120 µM) in data set [1] (solvent Hexane); 0.081 mg/mL (≈ 142 µM) in data set [1] (solvent IPA (isopropyl alcohol)). In addition, the solubility in data set [1] (solvent Methanol) is 0.082 mg/mL (≈ 144 µM); in data set [1] (solvent MtBE (methyl tert-butyl ether)), 0.726 mg/mL (≈ 1280 µM); in data set [1] (solvent THF (tetrahydrofuran)) it was more than 20.4 mg/mL. The “input zeaxanthin accounted for” value in data set [2] (after sitting in caustic solution for two weeks (15 days), precipitate, supernatant and wash solutions) is more than 99%; in data set [4] (after refluxing in caustic solution for 40 hours, precipitate, supernatant and wash solution), more than 99%. In addition, the “degradation / loss of zeaxanthin” value in data set [2] (strongly basic solution (pH~14), room temperature, 15 days) was “no degradation of zeaxanthin was observed; also recorded: nor was any significant loss of zeaxanthin observed; also recorded: no loss in zeaxanthin content”. In addition, the degradation of zeaxanthin result in data set [3] is on record as “No degradation of zeaxanthin was observed”. The stability to degradation result in data set [4] (reflux in very basic aqueous methanolic solution) is “stable to degradation”. Moreover, the loss of zeaxanthin in data set [4] (saponification by the method of the present invention, Capsicum starting material) is on record as less than 1%. Moreover, the “change in amounts of cis and trans isomers” value in data set [5] is on record as “no change was observed”.

A word on the solubility: it is the dissolved amount per volume that the medium holds.
